Laboratory results from patent US20180200257A1, “METHODS FOR THE TREATMENT OF INFLAMMATORY DISORDERS” (Galapagos NV, priority 2015, published 2018).

Test system: subjects with moderately to severely active RA who have an inadequate response to methotrexate (MTX)
Assay: Study 2 (monotherapy) - ACR responses (ACR20/50/70)
Format: in vivo, human
Source text: The terms “ACR20”, “ACR50” and “ACR70” as used herein are scores which indicate how much a patient's rheumatoid arthritis has improved according to criteria set out by the American College of Rheumatology (ACR). The ACR score represents a percentage. An ACR20 score means that a person's RA has improved by 20%, an ACR50 score means it has improved by 50%, and an ACR70 score means it has improved by 70%. Specifically, to qualify for an ACR20 score, a person with RA must have at least 20% fewer tender joints and at least 20% fewer swollen joints. In addition the patient must show a 20% improvement in at least three of the following five areas: the person's overall (global) assessment of his or her own RA, the physician's global assessment of the person's RA, the person's assessment of his or her own pain, the person's assessment of his or her own physical functioning, and the results of an erythrocyte sedimentation rate or C-reactive protein (CRP) blood test (both of which test for inflammation). ACR50 and ACR70 scores use the same criteria but require 50% and 70% improvement, respectively, (Felson et al., 1993). In the data presented herein the CRP blood test is used.
Randomized, double-blind, placebo-controlled, multicenter, phase IIb dose finding study of Compound 1 (dosed as a [Compound 1:HCl:3H2O]) administered for 24 weeks as monotherapy to subjects with moderately to severely active rheumatoid arthritis who have an inadequate response to methotrexate alone
Double-blind, placebo-controlled, monotherapy study in subjects with moderately to severely active RA who have an inadequate response to methotrexate (MTX) (oral or parenteral).
280 subjects randomized to one of 3 doses of Compound 1 (dosed as a [Compound 1:HCl:3H2O]) or to placebo, given once daily (q.d.).
Twelve weeks of treatment with Compound 1 (dosed as a [Compound 1:HCl:3H2O]) at 50 mg, 100 mg, or 200 mg q.d.; or placebo. At Week 12, all subjects on placebo and the subjects on the 50 mg dose who have not achieved 20% improvement in swollen joint count (SJC66) and tender joint count (TJC68) will be assigned to 100 mg q.d. in a blinded fashion and will continue treatment until Week 24. Subjects in the other groups will maintain their randomized treatment until Week 24.
The American College of Rheumatology (ACR) composite score, which evaluates clinical improvement relative to an initial assessment, is a commonly accepted efficacy end point for clinical trials in patients with rheumatoid arthritis. The ACR score correspond to a percentage improvement in pre-set parameters, and therefore measures the evolution of the disease in a patient. For example, ACR20 denotes at least 20% improvement in tender and swollen joint counts and in three of the following end points: global assessment by the patient, global assessment by the doctor, C reactive protein (CRP), patient's pain Visual Analogue Scale and Health Assessment Questionnaire Score. The number of swollen joints, ESR and CRP correlate with radiographic progression of joint damage, whereas tender joint counts, as well as global assessments by doctors and patients, and patients' reports of pain, are sensitive to change in clinical outcomes. Physical function, as assessed by the Health Assessment Questionnaire Score, is a potent predictor of the risk of disability in rheumatoid arthritis (Felson and American College of Rheumatology Committee to Reevaluate Improvement Criteria, 2007; Felson et al., 1993).
In particular, the list of parameters used to assess ACR score can be found in the Table XCVI below and the results of the ACR responses at week 12 via either NRI or LOCF are shown in the tables below. The Hommel-corrected p-value for the pairwise comparisons of each group with placebo is shown. […]

[1] = 100 mg q.d., week 4, 12 weeks results
[2] = 100 mg q.d., week 4, 24 weeks results
[3] = 100 mg q.d., week 8, 24 weeks results
[4] = 100 mg q.d., week 12, 12 weeks results
[5] = 100 mg q.d., week 12, 24 weeks results
[6] = 100 mg q.d., week 16, 24 weeks results
[7] = 100 mg q.d., week 20, 24 weeks results
[8] = 100 mg q.d., week 24, 24 weeks results
[9] = 100 mg q.d., week 8, 12 weeks results
[10] = 200 mg q.d., week 1, 12 weeks results
[11] = 200 mg q.d., week 1, 24 weeks results
[12] = 200 mg q.d., week 2, 12 weeks results
[13] = 200 mg q.d., week 2, 24 weeks results
[14] = 200 mg q.d., week 4, 12 weeks results
[15] = 200 mg q.d., week 4, 24 weeks results
[16] = 200 mg q.d., week 8, 24 weeks results
[17] = 200 mg q.d., week 12, 12 weeks results
[18] = 200 mg q.d., week 12, 24 weeks results
[19] = 200 mg q.d., week 16, 24 weeks results
[20] = 200 mg q.d., week 20, 24 weeks results
[21] = 200 mg q.d., week 24, 24 weeks results
[22] = 200 mg q.d., week 8, 12 weeks results

O=C(Nc1nc2cccc(-c3ccc(CN4CCS(=O)(=O)CC4)cc3)n2n1)C1CC1 [Compound 1, cyclopropanecarboxylic acid {5-[4-(1,1-dioxo-thiomorpholin-4-ylmethyl)-phenyl]-[1,2,4]triazolo[1,5-a]pyridin-2-yl}-amide]
ACR20 (NRI) [1]: 44.3% | ACR50 (LOCF) [1]: 18.6% | ACR50 (NRI) [1]: 18.6% | ACR70 (LOCF) [1]: 5.7% | ACR70 (NRI) [1]: 5.7% | ACR20 (LOCF) [2]: 44.3% | ACR20 (NRI) [2]: 44.3% | ACR50 (LOCF) [2]: 18.6% | ACR50 (NRI) [2]: 18.6% | ACR70 (LOCF) [2]: 5.7% | ACR70 (NRI) [2]: 5.7% | ACR50 (NRI) [3]: 25.7% | ACR70 (NRI) [3]: 11.4% | ACR50 (NRI) [4]: 34.3%% | ACR70 (NRI) [4]: 18.6%% | ACR50 (NRI) [5]: 35.7% | ACR70 (NRI) [5]: 18.6% | ACR50 (NRI) [6]: 38.6% | ACR70 (NRI) [6]: 17.1% | ACR50 (NRI) [7]: 41.4% | ACR70 (NRI) [7]: 24.3% | ACR50 (NRI) [8]: 40.0% | ACR70 (NRI) [8]: 25.7% | ACR20 (LOCF) [9]: 60.0% | ACR20 (NRI) [9]: 61.4% | ACR50 (LOCF) [9]: 25.7% | ACR50 (NRI) [9]: 25.7% | ACR70 (LOCF) [9]: 11.4% | ACR70 (NRI) [9]: 11.4% | ACR20 (LOCF) [10]: 39.1% | ACR20 (NRI) [10]: 39.1% | ACR50 (LOCF) [10]: 7.2% | ACR50 (NRI) [10]: 7.2% | ACR70 (LOCF) [10]: 1.4% | ACR70 (NRI) [10]: 1.4% | ACR20 (LOCF) [11]: 39.1% | ACR20 (NRI) [11]: 39.1% | ACR50 (LOCF) [11]: 7.2% | ACR50 (NRI) [11]: 7.2% | ACR70 (LOCF) [11]: 1.4% | ACR70 (NRI) [11]: 1.4% | ACR20 (LOCF) [12]: 53.6% | ACR20 (NRI) [12]: 56.5% | ACR50 (LOCF) [12]: 21.7% | ACR50 (NRI) [12]: 21.7% | ACR70 (LOCF) [12]: 4.3% | ACR70 (NRI) [12]: 4.3% | ACR20 (LOCF) [13]: 56.5% | ACR20 (NRI) [13]: 56.5% | ACR50 (LOCF) [13]: 21.7% | ACR50 (NRI) [13]: 21.7% | ACR70 (LOCF) [13]: 4.3% | ACR70 (NRI) [13]: 4.3% | ACR20 (LOCF) [14]: 62.3% | ACR20 (NRI) [14]: 63.8% | ACR50 (LOCF) [14]: 23.2% | ACR50 (NRI) [14]: 23.2% | ACR70 (LOCF) [14]: 11.6% | ACR70 (NRI) [14]: 11.6% | ACR20 (LOCF) [15]: 63.8% | ACR20 (NRI) [15]: 62.3% | ACR50 (LOCF) [15]: 23.2% | ACR50 (NRI) [15]: 23.2% | ACR70 (LOCF) [15]: 11.6% | ACR70 (NRI) [15]: 11.6% | ACR50 (NRI) [16]: 33.3% | ACR70 (NRI) [16]: 17.4% | ACR50 (NRI) [17]: 43.5%% | ACR70 (NRI) [17]: 13.0%% | ACR50 (NRI) [18]: 43.5% | ACR70 (NRI) [18]: 13.0% | ACR50 (NRI) [19]: 40.6% | ACR70 (NRI) [19]: 18.8% | ACR50 (NRI) [20]: 44.9% | ACR70 (NRI) [20]: 24.6% | ACR50 (NRI) [21]: 44.9% | ACR70 (NRI) [21]: 24.6% | ACR20 (LOCF) [22]: 72.5% | ACR20 (NRI) [22]: 73.9% | ACR50 (LOCF) [22]: 33.3% | ACR50 (NRI) [22]: 33.3% | ACR70 (LOCF) [22]: 17.4% | ACR70 (NRI) [22]: 17.4%
